Results from PubChem BioAssay (NCI).
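Tested at 5 concentrations; 48 h exposure; 96-well plates; endpoints linearly interpolated, else capped at highest concentration. GI50 is the concentration that inhibits growth by half. TGI is the concentration that stops growth completely.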

Key:
Assay in all cases: DTP human tumour cell line panel, 48 h
OVCAR-4 ovarian = system: OVCAR-4 ovarian
T-47D breast = system: T-47D breast
KM12 colon = system: KM12 colon
MOLT-4 leukemia = system: MOLT-4 leukemia
SF-539 CNS = system: SF-539 CNS
OVCAR-3 ovarian = system: OVCAR-3 ovarian
UO-31 renal = system: UO-31 renal
NCI/ADR-RES ovarian = system: NCI/ADR-RES ovarian
COLO 205 colon = system: COLO 205 colon
K-562 leukemia = system: K-562 leukemia
BT-549 breast = system: BT-549 breast
SF-295 CNS = system: SF-295 CNS
HL-60(TB) leukemia = system: HL-60(TB) leukemia
MDA-MB-231 breast = system: MDA-MB-231 breast
RPMI-8226 leukemia = system: RPMI-8226 leukemia
HCT-15 colon = system: HCT-15 colon
DU-145 prostate = system: DU-145 prostate
SN12C renal = system: SN12C renal
HOP-92 NSCLC = system: HOP-92 NSCLC
SK-MEL-5 melanoma = system: SK-MEL-5 melanoma
UACC-257 melanoma = system: UACC-257 melanoma
OVCAR-5 ovarian = system: OVCAR-5 ovarian
SR leukemia = system: SR leukemia
SNB-75 CNS = system: SNB-75 CNS
CAKI-1 renal = system: CAKI-1 renal
786-0 renal = system: 786-0 renal
SF-268 CNS = system: SF-268 CNS
U251 CNS = system: U251 CNS
M14 melanoma = system: M14 melanoma
SNB-19 CNS = system: SNB-19 CNS
HS 578T breast = system: HS 578T breast
SK-MEL-2 melanoma = system: SK-MEL-2 melanoma
SW-620 colon = system: SW-620 colon
LOX IMVI melanoma = system: LOX IMVI melanoma
NCI-H522 lung = system: NCI-H522 lung
HCT-116 colon = system: HCT-116 colon
TK-10 renal = system: TK-10 renal
ACHN renal = system: ACHN renal
NCI-H226 lung = system: NCI-H226 lung
SK-OV-3 ovarian = system: SK-OV-3 ovarian
MCF7 breast = system: MCF7 breast
A549 NSCLC = system: A549 NSCLC
RXF 393 renal = system: RXF 393 renal
IGROV1 ovarian = system: IGROV1 ovarian
HT29 colon = system: HT29 colon
SK-MEL-28 melanoma = system: SK-MEL-28 melanoma
HCC-2998 colon = system: HCC-2998 colon
MDA-MB-435 = system: MDA-MB-435
NCI-H460 lung = system: NCI-H460 lung
CCRF-CEM leukemia = system: CCRF-CEM leukemia
A498 renal = system: A498 renal
HOP-62 NSCLC = system: HOP-62 NSCLC
MALME-3M melanoma = system: MALME-3M melanoma
OVCAR-8 ovarian = system: OVCAR-8 ovarian

For `Cc1cccc2nc3ccccc3c(Nc3ccc(NS(C)(=O)=O)cc3)c12`, the GI50 (OVCAR-4 ovarian) was 13 µM, the TGI (OVCAR-4 ovarian) was 49.5 µM and the GI50 (T-47D breast) was 7.59 µM. The TGI (T-47D breast) was 24 µM, the GI50 (KM12 colon) was 6.19 µM and the TGI (KM12 colon) was 22.4 µM. For the same compound, the GI50 (MOLT-4 leukemia) was 1.72 µM, the TGI (MOLT-4 leukemia) was 5.91 µM and the GI50 (SF-539 CNS) was 10.3 µM. The TGI (SF-539 CNS) was 22.8 µM, the GI50 (OVCAR-3 ovarian) was 14.1 µM and the TGI (OVCAR-3 ovarian) was 37 µM. The GI50 (UO-31 renal) was 2.61 µM, the TGI (UO-31 renal) was 12.4 µM and the GI50 (NCI/ADR-RES ovarian) was 15.8 µM. For the same compound, the TGI (NCI/ADR-RES ovarian) was 48.8 µM, the GI50 (COLO 205 colon) was 7.61 µM and the TGI (COLO 205 colon) was 24 µM. It also gave a GI50 (K-562 leukemia) of 5.62 µM, a TGI (K-562 leukemia) of 26.8 µM and a GI50 (BT-549 breast) of 14.3 µM. It also gave a TGI (BT-549 breast) of 27.7 µM, a GI50 (SF-295 CNS) of 5.2 µM and a TGI (SF-295 CNS) of 47.5 µM. For the same compound, the GI50 (HL-60(TB) leukemia) was 2.05 µM, the TGI (HL-60(TB) leukemia) was 5.53 µM and the GI50 (MDA-MB-231 breast) was 9.57 µM. The TGI (MDA-MB-231 breast) was 24.2 µM, the GI50 (RPMI-8226 leukemia) was 2.68 µM and the TGI (RPMI-8226 leukemia) was 9.19 µM. For the same compound, the GI50 (HCT-15 colon) was 5.89 µM, the TGI (HCT-15 colon) was 31.6 µM and the GI50 (DU-145 prostate) was 3.76 µM. For the same compound, the TGI (DU-145 prostate) was 22.6 µM, the GI50 (SN12C renal) was 3.55 µM and the TGI (SN12C renal) was 15.4 µM. The GI50 (HOP-92 NSCLC) was 2.17 µM, the TGI (HOP-92 NSCLC) was 11.1 µM and the GI50 (SK-MEL-5 melanoma) was 4.91 µM. For the same compound, the TGI (SK-MEL-5 melanoma) was 17.5 µM, the GI50 (UACC-257 melanoma) was 10.4 µM and the TGI (UACC-257 melanoma) was 22.9 µM. It also gave a GI50 (OVCAR-5 ovarian) of 16.4 µM, a TGI (OVCAR-5 ovarian) of 38.9 µM and a GI50 (SR leukemia) of 1.51 µM. It also gave a TGI (SR leukemia) of 6.7 µM, a GI50 (SNB-75 CNS) of 13 µM and a TGI (SNB-75 CNS) of 52.2 µM. It also gave a GI50 (CAKI-1 renal) of 3.63 µM, a TGI (CAKI-1 renal) of 19.9 µM and a GI50 (786-0 renal) of 5.03 µM. For the same compound, the TGI (786-0 renal) was 16.6 µM, the GI50 (SF-268 CNS) was 10.2 µM and the TGI (SF-268 CNS) was 30.2 µM. For the same compound, the GI50 (U251 CNS) was 3.15 µM, the TGI (U251 CNS) was 13.5 µM and the GI50 (M14 melanoma) was 9.95 µM. It also gave a TGI (M14 melanoma) of 23 µM, a GI50 (SNB-19 CNS) of 6.98 µM and a TGI (SNB-19 CNS) of 56.2 µM. It also gave a GI50 (HS 578T breast) of 8.88 µM, a TGI (HS 578T breast) of 31.7 µM and a GI50 (SK-MEL-2 melanoma) of 16.9 µM. For the same compound, the TGI (SK-MEL-2 melanoma) was 31.8 µM, the GI50 (SW-620 colon) was 4.27 µM and the TGI (SW-620 colon) was 20.3 µM. It also gave a GI50 (LOX IMVI melanoma) of 3.38 µM, a TGI (LOX IMVI melanoma) of 15.1 µM and a GI50 (NCI-H522 lung) of 8.09 µM. The TGI (NCI-H522 lung) was 22 µM, the GI50 (HCT-116 colon) was 3.67 µM and the TGI (HCT-116 colon) was 15.9 µM. It also gave a GI50 (TK-10 renal) of 6.58 µM, a TGI (TK-10 renal) of 21 µM and a GI50 (ACHN renal) of 2.69 µM. The TGI (ACHN renal) was 11 µM, the GI50 (NCI-H226 lung) was 2.2 µM and the TGI (NCI-H226 lung) was 7.15 µM. The GI50 (SK-OV-3 ovarian) was 6.22 µM, the TGI (SK-OV-3 ovarian) was 55.5 µM and the GI50 (MCF7 breast) was 3.62 µM. It also gave a TGI (MCF7 breast) of 21.7 µM, a GI50 (A549 NSCLC) of 1.88 µM and a TGI (A549 NSCLC) of 12.4 µM. The GI50 (RXF 393 renal) was 10.8 µM, the TGI (RXF 393 renal) was 23.6 µM and the GI50 (IGROV1 ovarian) was 4.3 µM. It also gave a TGI (IGROV1 ovarian) of 38.6 µM, a GI50 (HT29 colon) of 5.18 µM and a TGI (HT29 colon) of 24.8 µM. For the same compound, the GI50 (SK-MEL-28 melanoma) was 13.8 µM, the TGI (SK-MEL-28 melanoma) was 29.6 µM and the GI50 (HCC-2998 colon) was 8.09 µM. The TGI (HCC-2998 colon) was 21.4 µM, the GI50 (MDA-MB-435) was 13.5 µM and the TGI (MDA-MB-435) was 34.2 µM. It also gave a GI50 (NCI-H460 lung) of 2.45 µM, a TGI (NCI-H460 lung) of 11.7 µM and a GI50 (CCRF-CEM leukemia) of 3.26 µM. It also gave a TGI (CCRF-CEM leukemia) of 12.2 µM, a GI50 (A498 renal) of 3.81 µM and a TGI (A498 renal) of 19.4 µM. For the same compound, the GI50 (HOP-62 NSCLC) was 4.69 µM, the TGI (HOP-62 NSCLC) was 17 µM and the GI50 (MALME-3M melanoma) was 4.99 µM. For the same compound, the TGI (MALME-3M melanoma) was 19.4 µM, the GI50 (OVCAR-8 ovarian) was 6.23 µM and the TGI (OVCAR-8 ovarian) was 30.9 µM.
